Experimental data as given in paper PMC5074076, “Novel minimal physiologically-based model for the prediction of passive tubular reabsorption and renal excretion clearance” (European Journal of Pharmaceutical Sciences, 2016).
Read-outs that look alike come from different tables or passages of the source.

Experiments:
[1] = Observed clearance ratio and fraction reabsorbed (Freab, Freab′) calculated from CLR, fu,p and GFR; conditions: for Freab: observed/apparent, 1 - CLR/(GFR x fu,p), GFR 120 mL/min
Experimental: The clearance ratio was calculated from clinical data using Eqs. […] For the remaining drugs the fraction reabsorbed (Freab) was calculated using Eq.
GFR values for healthy subjects may vary as a result of biological as well as inter-individual variation and also the method of measurement. […] Individual GFR values for subjects in clinical trials databases were generally not available.
In the proposed model, the nephron is represented as five compartments, namely the glomerulus and four tubular regions, as depicted in Fig. 1. The tubular compartments in the model, listed in anatomical order starting from the glomerulus are: the proximal tubule (PT), the loop of Henle (LoH), the distal tubule (DT) and the collecting duct (CD). […] The relationship between Freab′ and Freab is shown in Eq. (11). The predicted overall Freab′ was calculated from the predicted Freab′ in each (i) tubular region (Freab,i′), as shown in Eq. (12).

[2] = Ionisation classification at pH 6.5 from pKa; format: physicochemical; conditions: predominant species (> 50%) at pH 6.5 from measured or calculated pKa
Excerpt: (§1) The pKa values associated with ionisable centres identified within a given drug were used to calculate the fraction of drug ionised at pH 6.5. Drugs were then classified into groups as follows: drugs with > 50% unionised at pH 6.5 were classified as “Neutral”; drugs with > 50% ionised as mono −/di −/tri-protic acids or bases were classified as “Acid” or “Base”, respectively; “Zwitterions” were classified as drugs with > 50% ionised, with the major ionised species having no net charge; all other drugs were classified as amphoteric. […] LogD6.5 for neutral, amphoteric and zwitterion drugs were assumed to be equal to LogD7.4.

[3] = cited from earlier work
[4] = Caco-2 apparent permeability (Papp), apical to basolateral, pH 6.5-7.4 gradient, efflux inhibitor cocktail; conditions: human, Caco-2, pH 6.5
Experimental: The assay was performed using the apical to basolateral pH gradient format of pH 6.5 to pH 7.4. […] The efflux transporter inhibitor cocktail was used to minimise the effect of efflux transporters expressed in Caco-2 cells (e.g. P-glycoprotein, BCRP and MRP2) on the estimate of apical to basolateral Papp of substrates for such transporters.

[5] = LogD7.4 octanol-buffer, shake-flask (or ACD / BioByte); conditions: pH 7.4; for logD: octanol/buffer
Excerpt: as §1

[6] = LogD6.5 estimated from LogD7.4 and pKa; conditions: for logD: octanol/buffer
Excerpt: as §1

[7] = calculated from observed CLR, fu,p and GFR
[8] = healthy adult subjects, overall weighted mean of literature values, absolute (not normalised), ref Supplementary Results Table S2.1
[9] = healthy subjects, plasma and urine data from same subjects, normalised for subject weight and body surface area where necessary, ref Table S2.1
[10] = overall weighted mean of values obtained from a literature survey, ref Table S2.1

Structure (SMILES)	Apparent Freab ([1]; human, in vivo)	Apparent Freab’ ([1]; human, in vivo)	Ionisation at pH 6.5 [2]	CLR ([3]; human, in vivo)	CLR Observed ([3]; human, in vivo)	Overall weighted mean CLR ([3]; human, in vivo)	Apparent Freab [1, 7]	Apparent Freab’ [1, 7]	Freab [1]	Papp A→B at 2 h [4]	logD [5]	CLR [3, 8]	Overall weighted mean CLR [3, 9]	CLR Observed [3, 10]	logD ([6]; pH 6.5)	Freab ([1]; listed as caffeine)	LogD6.5 ([6]; calculated from pKa and LogD7.4)	LogD7.4 [5]	LogD6.5 ([6]; pH 6.5)
Cc1cc(=O)n(-c2ccccc2)n1C [Antipyrine]	0.989	0.997	Neutral	1.22 mL/min	1.22 mL/min	1.2 mL/min													
CCN(CC)CCCN(c1ccccc1)C1Cc2ccccc2C1 [Aprindine]			Base				0.785	0.791	0.78	31.8 ×10⁻⁶ cm/s	2.5	1.28 mL/min	1.3 mL/min	1.28 mL/min	1.53				
CC(C)NCC(O)COc1ccc(CC(N)=O)cc1 (stereo not drawn) [Atenolol]			Base				-0.247	-0.249											
C[C@H]1C[C@H]2[C@@H]3CCC4=CC(=O)C=C[C@]4(C)[C@@]3(F)[C@@H](O)C[C@]2(C)[C@@]1(O)C(=O)CO [Betamethasone]			Neutral				0.780	0.787	0.78		1.99	9.50 mL/min	9.5 mL/min	9.50 mL/min	1.99				
Cn1c(=O)c2c(ncn2C)n(C)c1=O [Caffeine]							0.987	0.995	0.99			1.06 mL/min	1.1 mL/min	1.06 mL/min		≥ 0.99			
CN(C)CCC(c1ccc(Cl)cc1)c1ccccn1 (stereo not drawn) [Chlorpheniramine]										28.5 ×10⁻⁶ cm/s									
CN(C)CCCC1(c2ccc(F)cc2)OCc2cc(C#N)ccc21 (stereo not drawn) [Citalopram]			Base				-0.086	-0.087				65.2 mL/min	65.2 mL/min	65.17 mL/min					
Nc1ccc(S(=O)(=O)c2ccc(N)cc2)cc1 [Dapsone]			Neutral							49.7 ×10⁻⁶ cm/s	0.85	5.50 mL/min	5.5 mL/min	5.50 mL/min	0.85				
CN(C)CCC=C1c2ccccc2COc2ccccc21 [Doxepin]			Base				0.638	0.643	0.64	36.5 ×10⁻⁶ cm/s	2.23	9.75 mL/min	9.8 mL/min	9.75 mL/min	1.41				
OC(Cn1cncn1)(Cn1cncn1)c1ccc(F)cc1F [Fluconazole]							0.848	0.855	0.85	36.3 ×10⁻⁶ cm/s		15.7 mL/min	15.7 mL/min	15.68 mL/min					
Cc1c(F)c(N2CCNC(C)C2)cc2c1c(=O)c(C(=O)O)cn2C1CC1 (stereo not drawn) [Grepafloxacin]			Zwitterion				0.350	0.353	0.35	110 ×10⁻⁶ cm/s	0.5	47.6 mL/min	47.6 mL/min	47.60 mL/min	0.5				
CC[C@@H](C(N)=O)N1CCCC1=O [Levetiracetam]			Neutral				0.636	0.641	0.64	15.7 ×10⁻⁶ cm/s		39.4 mL/min	39.4 mL/min	39.35 mL/min					
CC(=O)NC[C@H]1CN(c2ccc(N3CCOCC3)c(F)c2)C(=O)O1 [Linezolid]							0.576	0.581	0.58			39.5 mL/min	39.5 mL/min	39.54 mL/min					
Cc1ncc([N+](=O)[O-])n1CCO [Metronidazole]			Neutral				0.918	0.925	0.92	64.7 ×10⁻⁶ cm/s		9.64 mL/min	9.6 mL/min	9.64 mL/min					
Cc1cccc(C)c1OCC(C)N (stereo not drawn) [Mexiletine]							-0.252	-0.254				71.6 mL/min	71.6 mL/min	71.61 mL/min					
O=C(NCCN1CCOCC1)c1ccc(Cl)cc1 [Moclobemide]			Base				0.943	0.951	0.94	64.4 ×10⁻⁶ cm/s	1.6	3.42 mL/min	3.4 mL/min	3.42 mL/min	1.34				
COc1c(N2C[C@@H]3CCCN[C@@H]3C2)c(F)cc2c(=O)c(C(=O)O)cn(C3CC3)c12 [Moxifloxacin]			Zwitterion																
C[C@]12C=CC(=O)C=C1CC[C@@H]1[C@@H]2[C@@H](O)C[C@@]2(C)[C@H]1CC[C@]2(O)C(=O)CO [Prednisolone]			Neutral				0.099	0.100	0.10			34.3 mL/min	34.3 mL/min	34.30 mL/min			[…]		
CCCc1cc(=O)[nH]c(=S)[nH]1 [Propylthiouracil]							0.833	0.840	0.83			3.20 mL/min	3.2 mL/min	3.20 mL/min					
CN(C)[C@@H]1C(O)=C(C(N)=O)C(=O)[C@@]2(O)C(O)=C3C(=O)c4c(O)cccc4[C@@](C)(O)[C@H]3C[C@@H]12 [Tetracycline]							0.053	0.053	0.05	1.1 ×10⁻⁶ cm/s		86.4 mL/min	86.4 mL/min	86.38 mL/min					
Cn1c(=O)c2[nH]cnc2n(C)c1=O [Theophylline]			Neutral									5.50 mL/min	5.5 mL/min	5.50 mL/min				− 0.09	− 0.06
